Source: ChEMBL document CHEMBL4507282, “Data for DCP probe BI-1950” (2021)

What was measured:
[1] = target: Activin receptor type-2A (Homo sapiens) (UniProt P27037); details: Compound concentration 1000.0 nM
[2] = target: Vascular endothelial growth factor receptor 3 (Homo sapiens) (UniProt P35916); details: Compound concentration 1000.0 nM
[3] = target: Serine/threonine-protein kinase 17A (Homo sapiens) (UniProt Q9UEE5); details: Compound concentration 1000.0 nM
[4] = target: Fibroblast growth factor receptor 3 (Homo sapiens) (UniProt P22607); details: Compound concentration 1000.0 nM
[5] = target: Macrophage-stimulating protein receptor (Homo sapiens) (UniProt Q04912); details: Compound concentration 1000.0 nM
[6] = target: Serine/threonine-protein kinase tousled-like 1 (Homo sapiens) (UniProt Q9UKI8); details: Compound concentration 1000.0 nM
[7] = system: Tyrosine-protein kinase ABL1 (Homo sapiens), P00519 [T315I]; details: Compound concentration 1000.0 nM
[8] = target: Homeodomain-interacting protein kinase 1 (Homo sapiens) (UniProt Q86Z02); details: Compound concentration 1000.0 nM
Chain of Homeodomain-interacting protein kinase 1 (Homo sapiens) (Q86Z02 whole entry, looked up, canonical isoform): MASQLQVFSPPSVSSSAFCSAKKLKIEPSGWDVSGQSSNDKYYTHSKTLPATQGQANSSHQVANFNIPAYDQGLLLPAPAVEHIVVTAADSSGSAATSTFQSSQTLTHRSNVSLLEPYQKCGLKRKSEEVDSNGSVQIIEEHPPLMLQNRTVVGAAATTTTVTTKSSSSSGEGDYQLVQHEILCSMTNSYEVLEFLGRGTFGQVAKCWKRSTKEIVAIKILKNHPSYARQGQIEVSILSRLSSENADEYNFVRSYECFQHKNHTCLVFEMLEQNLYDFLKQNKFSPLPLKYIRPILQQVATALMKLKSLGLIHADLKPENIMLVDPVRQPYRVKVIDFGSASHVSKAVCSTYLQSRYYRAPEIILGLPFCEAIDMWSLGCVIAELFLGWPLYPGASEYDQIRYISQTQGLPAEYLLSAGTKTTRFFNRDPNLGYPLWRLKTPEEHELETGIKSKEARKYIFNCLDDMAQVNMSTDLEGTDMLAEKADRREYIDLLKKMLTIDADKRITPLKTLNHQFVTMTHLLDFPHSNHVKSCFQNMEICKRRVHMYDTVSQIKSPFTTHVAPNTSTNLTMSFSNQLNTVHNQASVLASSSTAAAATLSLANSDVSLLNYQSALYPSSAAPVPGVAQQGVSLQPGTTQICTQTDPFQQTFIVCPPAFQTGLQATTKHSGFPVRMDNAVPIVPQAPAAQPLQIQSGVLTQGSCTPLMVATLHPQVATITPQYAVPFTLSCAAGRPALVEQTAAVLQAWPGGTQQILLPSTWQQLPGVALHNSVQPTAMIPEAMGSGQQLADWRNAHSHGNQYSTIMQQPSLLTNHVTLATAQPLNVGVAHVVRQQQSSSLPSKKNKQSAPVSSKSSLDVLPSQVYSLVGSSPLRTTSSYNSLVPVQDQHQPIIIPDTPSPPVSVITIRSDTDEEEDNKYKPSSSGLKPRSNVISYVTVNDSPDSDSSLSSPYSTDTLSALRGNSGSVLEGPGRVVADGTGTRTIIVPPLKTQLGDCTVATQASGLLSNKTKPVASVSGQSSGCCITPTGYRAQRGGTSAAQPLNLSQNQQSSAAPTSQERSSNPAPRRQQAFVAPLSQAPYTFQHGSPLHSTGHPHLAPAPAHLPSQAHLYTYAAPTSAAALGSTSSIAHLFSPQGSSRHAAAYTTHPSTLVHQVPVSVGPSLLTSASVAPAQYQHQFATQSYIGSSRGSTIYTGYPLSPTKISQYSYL

[9] = target: Phosphorylase b kinase regulatory subunit alpha, liver isoform (Homo sapiens) (UniProt P46019); details: Compound concentration 1000.0 nM
[10] = target: Mitogen-activated protein kinase kinase kinase 2 (Homo sapiens) (UniProt Q9Y2U5); details: Compound concentration 1000.0 nM
[11] = target: SRSF protein kinase 3 (Homo sapiens) (UniProt Q9UPE1); details: Compound concentration 1000.0 nM
[12] = target: Mitogen-activated protein kinase kinase kinase 1 (Homo sapiens) (UniProt Q13233); details: Compound concentration 1000.0 nM
[13] = target: Dual specificity protein kinase CLK2 (Homo sapiens) (UniProt P49760); details: Compound concentration 1000.0 nM
[14] = target: Mitogen-activated protein kinase 4 (Homo sapiens) (UniProt P31152); details: Compound concentration 1000.0 nM
Chain of Mitogen-activated protein kinase 4 (Homo sapiens) (P31152 whole entry): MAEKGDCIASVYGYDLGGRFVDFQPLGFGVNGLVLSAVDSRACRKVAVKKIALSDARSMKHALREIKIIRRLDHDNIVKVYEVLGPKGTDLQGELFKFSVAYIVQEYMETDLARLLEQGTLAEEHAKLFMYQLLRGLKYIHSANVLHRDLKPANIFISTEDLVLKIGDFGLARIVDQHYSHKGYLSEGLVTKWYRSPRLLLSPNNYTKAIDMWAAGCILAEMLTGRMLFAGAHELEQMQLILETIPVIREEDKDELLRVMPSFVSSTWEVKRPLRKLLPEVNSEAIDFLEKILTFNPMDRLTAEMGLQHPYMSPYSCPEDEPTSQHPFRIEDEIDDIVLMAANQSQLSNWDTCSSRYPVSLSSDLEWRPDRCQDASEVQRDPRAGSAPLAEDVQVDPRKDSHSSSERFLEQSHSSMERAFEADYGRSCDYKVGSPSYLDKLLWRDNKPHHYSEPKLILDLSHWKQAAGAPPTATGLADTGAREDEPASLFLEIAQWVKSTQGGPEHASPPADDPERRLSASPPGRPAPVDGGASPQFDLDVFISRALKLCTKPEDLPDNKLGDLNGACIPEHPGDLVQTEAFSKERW

[15] = system: Receptor-type tyrosine-protein kinase FLT3 (Homo sapiens), P36888 [UNDEFINED MUTATION]; details: Compound concentration 1000.0 nM
[16] = target: Serine/threonine-protein kinase MRCK beta (Homo sapiens) (UniProt Q9Y5S2); details: Compound concentration 1000.0 nM
[17] = system: Tyrosine-protein kinase ABL1 (Homo sapiens), P00519 [Y253F]; details: Compound concentration 1000.0 nM
[18] = system: Proto-oncogene tyrosine-protein kinase receptor Ret (Homo sapiens), P07949 [V804L]; details: Compound concentration 1000.0 nM
[19] = target: Serine/threonine-protein kinase 35 (Homo sapiens) (UniProt Q8TDR2); details: Compound concentration 1000.0 nM
[20] = target: Calcium-dependent protein kinase 1 (Plasmodium falciparum) (UniProt P62344); details: Compound concentration 1000.0 nM
Chain of Calcium-dependent protein kinase 1 (Plasmodium falciparum) (P62344 2-524 limits assumed): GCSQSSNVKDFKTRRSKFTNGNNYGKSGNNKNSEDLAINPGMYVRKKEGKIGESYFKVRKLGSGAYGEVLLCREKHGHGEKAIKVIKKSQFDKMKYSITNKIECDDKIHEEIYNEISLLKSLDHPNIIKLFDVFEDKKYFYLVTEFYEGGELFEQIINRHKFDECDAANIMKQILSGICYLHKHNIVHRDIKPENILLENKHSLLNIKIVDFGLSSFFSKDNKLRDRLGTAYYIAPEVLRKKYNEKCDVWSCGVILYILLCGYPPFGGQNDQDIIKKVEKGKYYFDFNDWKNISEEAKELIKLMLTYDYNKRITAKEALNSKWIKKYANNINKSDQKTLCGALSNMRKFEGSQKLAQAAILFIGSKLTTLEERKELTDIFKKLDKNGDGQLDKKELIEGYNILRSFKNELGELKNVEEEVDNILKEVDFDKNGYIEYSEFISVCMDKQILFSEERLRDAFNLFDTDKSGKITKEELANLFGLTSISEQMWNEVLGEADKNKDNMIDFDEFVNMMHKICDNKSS

[21] = target: Serine/threonine-protein kinase RIO3 (Homo sapiens) (UniProt O14730); details: Compound concentration 1000.0 nM
[22] = target: Mitogen-activated protein kinase kinase kinase 20 (Homo sapiens) (UniProt Q9NYL2); details: Compound concentration 1000.0 nM
[23] = target: Histamine H3 receptor (Homo sapiens) (UniProt Q9Y5N1); details: Compound concentration 10.0 uM
[24] = target: Serine/threonine-protein kinase DCLK1 (Homo sapiens) (UniProt O15075); details: Compound concentration 1000.0 nM
[25] = target: Serine/threonine-protein kinase Nek7 (Homo sapiens) (UniProt Q8TDX7); details: Compound concentration 1000.0 nM
[26] = target: cAMP-dependent protein kinase catalytic subunit PRKX (Homo sapiens) (UniProt P51817); details: Compound concentration 1000.0 nM
Chain of cAMP-dependent protein kinase catalytic subunit PRKX (Homo sapiens) (P51817 whole entry): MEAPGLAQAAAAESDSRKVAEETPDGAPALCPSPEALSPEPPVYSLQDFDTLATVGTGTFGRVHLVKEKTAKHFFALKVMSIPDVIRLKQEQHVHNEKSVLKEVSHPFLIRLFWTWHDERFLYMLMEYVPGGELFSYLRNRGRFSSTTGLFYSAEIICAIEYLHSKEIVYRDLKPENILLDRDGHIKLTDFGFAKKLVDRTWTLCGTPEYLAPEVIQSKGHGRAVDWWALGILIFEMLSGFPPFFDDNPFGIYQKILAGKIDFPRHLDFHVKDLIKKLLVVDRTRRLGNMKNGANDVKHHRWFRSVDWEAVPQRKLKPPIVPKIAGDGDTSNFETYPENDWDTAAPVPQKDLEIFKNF

[27] = target: Cyclin-dependent kinase 11A (Homo sapiens) (UniProt Q9UQ88); details: Compound concentration 1000.0 nM
[28] = target: Alpha-2C adrenergic receptor (Homo sapiens) (UniProt P18825); details: Compound concentration 10.0 uM
Chain of Alpha-2C adrenergic receptor (Homo sapiens) (P18825 whole entry): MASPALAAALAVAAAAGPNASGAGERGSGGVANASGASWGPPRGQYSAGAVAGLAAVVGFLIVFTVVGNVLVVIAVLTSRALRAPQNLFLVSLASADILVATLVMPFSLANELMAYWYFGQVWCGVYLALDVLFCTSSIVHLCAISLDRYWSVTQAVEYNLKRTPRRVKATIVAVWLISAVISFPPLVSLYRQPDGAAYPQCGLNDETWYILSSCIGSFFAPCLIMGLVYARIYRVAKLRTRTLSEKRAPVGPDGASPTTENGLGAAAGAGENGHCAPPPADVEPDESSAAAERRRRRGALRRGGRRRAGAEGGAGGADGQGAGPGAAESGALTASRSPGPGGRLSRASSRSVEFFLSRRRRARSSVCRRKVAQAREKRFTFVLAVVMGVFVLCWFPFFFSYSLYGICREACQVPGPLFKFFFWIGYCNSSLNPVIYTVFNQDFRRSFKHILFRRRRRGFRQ

[29] = target: Serine/threonine-protein kinase 32C (Homo sapiens) (UniProt Q86UX6); details: Compound concentration 1000.0 nM
[30] = target: Cyclin-dependent kinase 8 (Homo sapiens) (UniProt P49336); details: Compound concentration 1000.0 nM
[31] = target: Ribosomal protein S6 kinase alpha-5 (Homo sapiens) (UniProt O75582); details: Compound concentration 1000.0 nM
[32] = target: Inhibitor of nuclear factor kappa-B kinase subunit epsilon (Homo sapiens) (UniProt Q14164); details: Compound concentration 1000.0 nM
[33] = target: Discoidin domain-containing receptor 2 (Homo sapiens) (UniProt Q16832); details: Compound concentration 1000.0 nM
Chain of Discoidin domain-containing receptor 2 (Homo sapiens) (Q16832 whole entry, the tested form may be a part): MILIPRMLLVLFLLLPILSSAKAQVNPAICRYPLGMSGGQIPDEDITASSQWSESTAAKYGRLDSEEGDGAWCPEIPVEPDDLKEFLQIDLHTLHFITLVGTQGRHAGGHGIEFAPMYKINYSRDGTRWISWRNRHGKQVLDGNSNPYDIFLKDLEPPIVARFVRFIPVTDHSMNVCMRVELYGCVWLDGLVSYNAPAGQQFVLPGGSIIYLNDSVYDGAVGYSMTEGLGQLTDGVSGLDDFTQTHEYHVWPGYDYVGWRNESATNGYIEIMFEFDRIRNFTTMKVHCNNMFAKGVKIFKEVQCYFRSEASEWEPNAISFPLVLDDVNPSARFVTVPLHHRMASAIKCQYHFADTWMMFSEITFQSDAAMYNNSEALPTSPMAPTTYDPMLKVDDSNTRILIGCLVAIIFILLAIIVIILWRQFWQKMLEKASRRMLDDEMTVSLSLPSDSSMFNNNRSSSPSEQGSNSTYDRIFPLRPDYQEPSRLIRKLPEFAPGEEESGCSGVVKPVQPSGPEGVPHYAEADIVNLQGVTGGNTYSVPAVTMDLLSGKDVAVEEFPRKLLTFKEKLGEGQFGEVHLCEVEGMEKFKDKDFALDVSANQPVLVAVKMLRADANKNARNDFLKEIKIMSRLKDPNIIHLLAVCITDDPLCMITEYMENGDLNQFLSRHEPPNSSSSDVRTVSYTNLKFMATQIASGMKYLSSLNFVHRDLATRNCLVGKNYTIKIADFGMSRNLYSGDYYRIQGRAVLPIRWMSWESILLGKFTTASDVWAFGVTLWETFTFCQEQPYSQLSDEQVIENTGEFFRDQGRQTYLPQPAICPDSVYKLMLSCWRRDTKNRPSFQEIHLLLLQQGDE

[34] = target: Alpha-2B adrenergic receptor (Homo sapiens) (UniProt P18089); details: Compound concentration 10.0 uM
[35] = target: Insulin receptor-related protein (Homo sapiens) (UniProt P14616); details: Compound concentration 1000.0 nM
[36] = target: Cyclin-dependent kinase 15 (Homo sapiens) (UniProt Q96Q40); details: Compound concentration 1000.0 nM
Chain of Cyclin-dependent kinase 15 (Homo sapiens) (Q96Q40 whole entry): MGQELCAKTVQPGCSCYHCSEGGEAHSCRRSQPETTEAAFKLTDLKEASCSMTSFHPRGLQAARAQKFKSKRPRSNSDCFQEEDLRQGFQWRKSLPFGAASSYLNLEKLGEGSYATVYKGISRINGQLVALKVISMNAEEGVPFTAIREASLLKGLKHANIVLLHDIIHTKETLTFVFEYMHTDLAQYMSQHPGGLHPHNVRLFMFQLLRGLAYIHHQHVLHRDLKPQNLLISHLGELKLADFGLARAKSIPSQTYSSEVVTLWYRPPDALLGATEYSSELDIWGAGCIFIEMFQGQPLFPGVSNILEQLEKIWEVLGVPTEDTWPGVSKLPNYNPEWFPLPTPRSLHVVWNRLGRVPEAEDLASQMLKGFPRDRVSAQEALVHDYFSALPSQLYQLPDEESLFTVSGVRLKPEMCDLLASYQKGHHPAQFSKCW

[37] = target: Serine/threonine-protein kinase Nek6 (Homo sapiens) (UniProt Q9HC98); details: Compound concentration 1000.0 nM
[38] = target: Ribosomal protein S6 kinase alpha-1 (Homo sapiens) (UniProt Q15418); details: Compound concentration 1000.0 nM
[39] = target: Hepatocyte growth factor receptor (Homo sapiens) (UniProt P08581); details: Compound concentration 1000.0 nM
[40] = target: Dual serine/threonine and tyrosine protein kinase (Homo sapiens) (UniProt Q6XUX3); details: Compound concentration 1000.0 nM
[41] = target: Kappa-type opioid receptor (Homo sapiens) (UniProt P41145); details: Compound concentration 10.0 uM
[42] = target: Phosphatidylinositol 4,5-bisphosphate 3-kinase catalytic subunit beta isoform (Homo sapiens) (UniProt P42338); details: Compound concentration 1000.0 nM
[43] = target: Phosphatidylinositol 4-phosphate 5-kinase type-1 gamma (Homo sapiens) (UniProt O60331); details: Compound concentration 1000.0 nM
[44] = target: Aurora kinase C (Homo sapiens) (UniProt Q9UQB9); details: Compound concentration 1000.0 nM
[45] = target: Tyrosine-protein kinase Lyn (Homo sapiens) (UniProt P07948); details: Compound concentration 1000.0 nM

Chain of Activin receptor type-2A (Homo sapiens) (P27037 whole entry): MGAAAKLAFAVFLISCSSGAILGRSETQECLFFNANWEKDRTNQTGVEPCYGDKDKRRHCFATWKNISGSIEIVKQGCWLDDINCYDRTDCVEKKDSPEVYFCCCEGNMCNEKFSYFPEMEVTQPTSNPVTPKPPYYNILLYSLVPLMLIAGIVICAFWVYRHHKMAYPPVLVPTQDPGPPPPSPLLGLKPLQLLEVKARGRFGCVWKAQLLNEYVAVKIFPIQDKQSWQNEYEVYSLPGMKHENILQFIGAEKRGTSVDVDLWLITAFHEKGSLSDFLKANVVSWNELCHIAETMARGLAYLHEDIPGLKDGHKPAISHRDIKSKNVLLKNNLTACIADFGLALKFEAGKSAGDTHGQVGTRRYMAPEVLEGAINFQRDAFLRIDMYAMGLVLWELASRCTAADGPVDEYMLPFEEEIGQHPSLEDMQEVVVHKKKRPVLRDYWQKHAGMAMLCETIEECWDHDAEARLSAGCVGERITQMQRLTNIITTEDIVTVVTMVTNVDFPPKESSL

C[C@H](NC(=O)c1cnc2n1[C@](C)(Cc1ccc(C#N)cc1)C(=O)N2c1cc(Cl)c(F)c(Cl)c1)C(=O)NC1(c2ccccn2)CC1 [BI 1950]
inactive: residual activity [1] 92% | residual activity [2] 100% | residual activity [3] 100% | residual activity [4] 100% | residual activity [5] 100% | residual activity [6] 100% | residual activity [7] 100% | residual activity [8] 97% | residual activity [9] 100% | residual activity [10] 100% | residual activity [11] 100% | residual activity [12] 100% | residual activity [13] 97% | residual activity [14] 100% | residual activity [15] 100% | residual activity [16] 100% | residual activity [17] 100% | residual activity [18] 100% | residual activity [19] 100% | residual activity [20] 100% | residual activity [21] 100% | residual activity [22] 100% | inhibition [23] 1.43% | residual activity [24] 89% | residual activity [25] 100% | residual activity [26] 100% | residual activity [27] 100% | inhibition [28] 0.16% | residual activity [29] 100% | residual activity [30] 100% | residual activity [31] 96% | residual activity [32] 89% | residual activity [33] 100% | inhibition [34] -3.79% | residual activity [35] 100% | residual activity [36] 100% | residual activity [37] 100% | residual activity [38] 100% | residual activity [39] 100% | residual activity [40] 87% | inhibition [41] 9.67% | residual activity [42] 99% | residual activity [43] 80% | residual activity [44] 100% | residual activity [45] 100%

C[C@@]1(Cc2ccc(C#N)cc2)C(=O)N(c2cc(Cl)cc(Cl)c2)c2ncc(C(=O)NC3(c4nc(C5CCC5)no4)CC3)n21 [BI 9446]
inactive: residual activity [1] 92% | residual activity [2] 100% | residual activity [3] 91% | residual activity [4] 100% | residual activity [5] 100% | residual activity [6] 100% | residual activity [7] 100% | residual activity [8] 100% | residual activity [9] 100% | residual activity [10] 100% | residual activity [11] 100% | residual activity [12] 100% | residual activity [13] 100% | residual activity [14] 100% | residual activity [15] 100% | residual activity [16] 100% | residual activity [17] 95% | residual activity [18] 100% | residual activity [19] 100% | residual activity [20] 100% | residual activity [21] 100% | residual activity [22] 100% | inhibition [23] 20% | residual activity [24] 100% | residual activity [25] 100% | residual activity [26] 100% | residual activity [27] 100% | inhibition [28] 9.3% | residual activity [29] 99% | residual activity [30] 100% | residual activity [31] 100% | residual activity [32] 80% | residual activity [33] 100% | inhibition [34] 15% | residual activity [35] 100% | residual activity [36] 97% | residual activity [37] 100% | residual activity [38] 100% | residual activity [39] 100% | residual activity [40] 95% | inhibition [41] 12.6% | residual activity [42] 97% | residual activity [43] 100% | residual activity [44] 100% | residual activity [45] 95%
